Test results published in patent publication US9518240B2, “Process for the treatment of liquefied hydrocarbons using 3-(piperazine-1-YL)propane-1,2-diol compounds” (Dow Global Technologies LLC, priority 2012, dated 2016).

Assays:
[1] = pKa by automated Mettler Toledo titration; details: water (50 weight % aqueous amine solution)
[2] = heptane 10 g, toluene 0.1 g (internal standard), amine 2.5 g; mixed at 20° C. for 1 hour, decanted 15 minutes; average of three injections
Experimental: A solution of heptane (10 g), toluene (0.1 g) and the tested amine (2.5 g) are mixed at 20° C. for 1 hour. The mixture is decanted for 15 minutes and the neat heptane phase is analyzed by gas chromatography using toluene as internal standard.

Compound	pKa [1]	area counts (averaged GC peak area of tested amine in neat heptane phase) [2]
OCC(O)CN1CCNCC1 (stereo not drawn) [PPD, 3-(piperazine-1-YL)propane-1,2-diol]	9.5	132 area counts
C1CNCCN1 [Piperazine]		13748 area counts
